Reference: patent US10738056B2 (Aduro BioTech, Inc., priority 2017, dated 2020)
Like-named read-outs stand apart in the source and are kept apart here.

What was measured:
[1] = target: Human cGAS amino acids 155-522 (Homo sapiens (Human), UniProt Q8N884); assay: cGAS biochemical activity assay (ATP remaining, Kinase-Glo Max luminescence); settings: human cGAS 155-522, ATP remaining (Kinase-Glo Max); read-out: cGAS IC50
[2] = tested on: cGAS/STING pathway in THP1 cells; assay: THP1 cell-based cGAS/STING pathway activity assay (IRF-3-linked luciferase reporter)
Source text: A cellular assay can be used to assess the compounds of the invention for their ability to inhibit the cGAS/STING pathway. Cells that express a luciferase-based reporter that is linked to IRF-3 activation are used to determine response as a function of compound concentration. Such an assay is described in Vincent et al., Nature Communications 2017, 8(1):750, doi: 10.1038/s41467-017-00833-9.
A cellular assay can be used to assess the compounds of the invention for their ability to inhibit the cGAS/STING pathway. Cells that express a luciferase-based reporter that is linked to IRF-3 activation are used to determine response as a function of compound concentration. Such an assay is described in Vincent et al., Nature Communications 2017, 8(1):750, doi: 10.1038/s41467-017-00833-9. Compounds of the invention were assessed using similar assay methods in a THP1 cell assay to generate IC50 values as provided in the following Table 16. In this table, activity level “A” indicates an IC50 value less than 20 μM, “B” indicates an IC50 value between 20 and 100 μM, and “C” indicates an IC50 value above the upper limit of the assay (100 μM), or where an IC50 value could not be generated from the data.

Human cGAS amino acids 155-522, sequence (Q8N884 157-522): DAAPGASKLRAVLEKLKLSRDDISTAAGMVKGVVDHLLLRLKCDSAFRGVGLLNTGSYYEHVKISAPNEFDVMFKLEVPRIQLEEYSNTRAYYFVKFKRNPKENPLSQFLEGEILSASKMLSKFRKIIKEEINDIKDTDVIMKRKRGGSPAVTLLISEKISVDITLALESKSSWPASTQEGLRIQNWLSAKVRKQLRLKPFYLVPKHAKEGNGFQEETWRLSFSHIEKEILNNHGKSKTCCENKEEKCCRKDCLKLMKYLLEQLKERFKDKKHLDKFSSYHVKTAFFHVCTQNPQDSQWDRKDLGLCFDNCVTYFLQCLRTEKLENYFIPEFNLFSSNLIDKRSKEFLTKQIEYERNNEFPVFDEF

| SMILES | IC50 [1] [µM] | IC50 ([2]; Homo sapiens, THP-1) [µM] | IC50 ([2]; read-out: THP-1 IC50) [µM] |
| --- | --- | --- | --- |
| Cc1[nH]c2c(-c3ccccc3)c(C(F)(F)F)nn2c(=O)c1C(=O)Nc1ccccc1N [Compound A1006, N-(2-aminophenyl)-5-methyl-7-oxo-3-phenyl-2-(trifluoromethyl)-4,7-dihydropyrazolo[1,5-a]pyrimidine-6-carboxamide] | < 20 | > 100 |  |
| CO[C@@H]1CCCC1c1nnc(-c2c(C)[nH]c3c(-c4ccccc4)c(C(F)(F)F)nn3c2=O)o1 (stereo partly drawn) [D1049 Iso-2] | < 20 |  | > 100 |
| Cc1[nH]c2c(-c3ccccc3)c(C(F)(F)F)nn2c(=O)c1C(=O)Nc1nccs1 [Compound A1028, 5-methyl-7-oxo-3-phenyl-N-(thiazol-2-yl)-2-(trifluoromethyl)-4,7-dihydropyrazolo[1,5-a]pyrimidine-6-carboxamide] | < 20 | 20 to 100 |  |
| COc1ccccc1NC(=O)Cc1c(C)[nH]c2c(-c3ccccc3)c(C(F)(F)F)nn2c1=O [Compound B1010, N-(2-methoxyphenyl)-2-(5-methyl-7-oxo-3-phenyl-2-(trifluoromethyl)-4,7-dihydropyrazolo[1,5-a]pyrimidin-6-yl)acetamide] | 20 to 250 | 20 to 100 |  |
| COc1ccnc(NC(=O)c2c(C)[nH]c3c(-c4ccccc4)c(C(F)(F)F)nn3c2=O)c1 [Compound A1063, N-(4-methoxypyridin-2-yl)-5-methyl-7-oxo-3-phenyl-2-(trifluoromethyl)-4,7-dihydropyrazolo[1,5-a]pyrimidine-6-carboxamide] | < 20 | 20 to 100 |  |
| Cc1cc(NC(=O)c2c(C)[nH]c3c(-c4ccccc4)c(C(F)(F)F)nn3c2=O)n(C)n1 [Compound A1073, N-(1,3-dimethyl-1H-pyrazol-5-yl)-5-methyl-7-oxo-3-phenyl-2-(trifluoromethyl)-4,7-dihydropyrazolo[1,5-a]pyrimidine-6-carboxamide] | 20 to 250 | > 100 |  |
| CO[C@@H]1CCCC[C@H]1c1nnc(-c2c(C)[nH]c3c(-c4ccccc4)c(C(F)(F)F)nn3c2=O)o1 [D1046 Iso-3] | < 20 |  | > 100 |
| COc1cccc(S(=O)(=O)NC(=O)c2c(C)[nH]c3c(-c4ccccc4)c(C(F)(F)F)nn3c2=O)c1 [Compound A1125, N-((3-methoxyphenyl)sulfonyl)-5-methyl-7-oxo-3-phenyl-2-(trifluoromethyl)-4,7-dihydropyrazolo[1,5-a]pyrimidine-6-carboxamide] | < 20 | 20 to 100 |  |
| COCCn1ccc(NC(=O)c2c(C)[nH]c3c(-c4ccccc4)c(C(F)(F)F)nn3c2=O)n1 [Compound A1115, N-(1-(2-methoxyethyl)-1H-pyrazol-3-yl)-5-methyl-7-oxo-3-phenyl-2-(trifluoromethyl)-4,7-dihydropyrazolo[1,5-a]pyrimidine-6-carboxamide] | 20 to 250 | > 100 |  |

More lines, now with the values ahead:

| IC50 [1] [µM] | IC50 ([2]; Homo sapiens, THP-1) [µM] | IC50 ([2]; read-out: THP-1 IC50) [µM] | SMILES |
| --- | --- | --- | --- |
| > 250 | < 20 |  | COc1cccc2oc(-c3c(C)[nH]c4c(-c5ccc(F)cc5)c(C(F)(F)F)nn4c3=O)nc12 [Compound C1107, 3-(4-fluorophenyl)-6-(4-methoxybenzo[d]oxazol-2-yl)-5-methyl-2-(trifluoromethyl)pyrazolo[1,5-a]pyrimidin-7(4H)-one] |
| 20 to 250 | > 100 |  | Cc1[nH]c2c(-c3ccccc3)c(C(F)(F)F)nn2c(=O)c1-c1nnc(C2(C)CCCOC2)o1 (stereo not drawn) [Compound D1051, 5-methyl-6-(5-(3-methyltetrahydro-2H-pyran-3-yl)-1,3,4-oxadiazol-2-yl)-3-phenyl-2-(trifluoromethyl)pyrazolo[1,5-a]pyrimidin-7(4H)-one] |
| < 20 | < 20 |  | COc1ccc2[nH]c(-c3c(C)[nH]c4c(-c5ccccc5)c(C(F)(F)F)nn4c3=O)nc2c1 [Compound C1016, 6-(5-methoxy-1H-benzo[d]imidazol-2-yl)-5-methyl-3-phenyl-2-(trifluoromethyl)pyrazolo[1,5-a]pyrimidin-7(4H)-one] |
| < 20 | > 100 |  | Cc1[nH]c2c(-c3ccccc3)c(C(F)(F)F)nn2c(=O)c1C1=NC(C(=O)O)[C@H](C)O1 (stereo partly drawn) [Compound C1216, (5S)-5-methyl-2-(5-methyl-7-oxo-3-phenyl-2-(trifluoromethyl)-4,7-dihydropyrazolo[1,5-a]pyrimidin-6-yl)-4,5-dihydrooxazole-4-carboxylic acid] |
| < 20 | > 100 |  | COc1ccc(CO)c2oc(-c3c(C)[nH]c4c(-c5ccccc5)c(C(F)(F)F)nn4c3=O)nc12 [Compound C1224, 6-(7-(hydroxymethyl)-4-methoxybenzo[d]oxazol-2-yl)-5-methyl-3-phenyl-2-(trifluoromethyl)pyrazolo[1,5-a]pyrimidin-7(4H)-one] |
| < 20 | > 100 |  | Cc1[nH]c2c(-c3ccccc3)c(C(F)(F)F)nn2c(=O)c1-c1nnc(C2CCCCC2)o1 [Compound D1004, 6-(5-cyclohexyl-1,3,4-oxadiazol-2-yl)-5-methyl-3-phenyl-2-(trifluoromethyl)pyrazolo[1,5-a]pyrimidin-7(4H)-one] |
| < 20 | > 100 |  | Cc1[nH]c2c(-c3ccccc3)c(C(F)(F)F)nn2c(=O)c1-c1nnc(C2CCCN(S(C)(=O)=O)C2)o1 (stereo not drawn) [Compound D1040, 5-methyl-6-(5-(1-(methylsulfonyl)piperidin-3-yl)-1,3,4-oxadiazol-2-yl)-3-phenyl-2-(trifluoromethyl)pyrazolo[1,5-a]pyrimidin-7(4H)-one] |
| < 20 | > 100 |  | COCc1[nH]c2c(-c3ccccc3)c(C#N)nn2c(=O)c1-c1nc2c(OC)nc(N)cc2o1 [Compound C1227, 6-(6-amino-4-methoxyoxazolo[4,5-c]pyridin-2-yl)-5-(methoxymethyl)-7-oxo-3-phenyl-4,7-dihydropyrazolo[1,5-a]pyrimidine-2-carbonitrile] |
| 20 to 250 | < 20 |  | COc1cccc2c(-c3c(C)[nH]c4c(-c5ccccc5)c(C(F)(F)F)nn4c3=O)n[nH]c12 [Compound C1026, 6-(7-methoxy-1H-indazol-3-yl)-5-methyl-3-phenyl-2-(trifluoromethyl)pyrazolo[1,5-a]pyrimidin-7(4H)-one] |
| < 20 | > 100 |  | Cc1[nH]c2c(-c3ccccc3)c(C(F)(F)F)nn2c(=O)c1-c1nc2c(=O)[nH]ccc2o1 [Compound C1116, 2-(5-methyl-7-oxo-3-phenyl-2-(trifluoromethyl)-4,7-dihydropyrazolo[1,5-a]pyrimidin-6-yl)oxazolo[4,5-c]pyridin-4(5H)-one] |
| < 20 | 20 to 100 |  | COc1cc(N)c(Cl)c2oc(-c3c(C)[nH]c4c(-c5ccccc5)c(C#N)nn4c3=O)nc12 [Compound C1202, 6-(6-amino-7-chloro-4-methoxybenzo[d]oxazol-2-yl)-5-methyl-7-oxo-3-phenyl-4,7-dihydropyrazolo[1,5-a]pyrimidine-2-carbonitrile] |
| < 20 | < 20 |  | COc1cccc2oc(-c3c(C)[nH]c4c(-c5ccccc5)c(C(F)F)nn4c3=O)nc12 [Compound C1050, 2-(difluoromethyl)-6-(4-methoxybenzo[d]oxazol-2-yl)-5-methyl-3-phenylpyrazolo[1,5-a]pyrimidin-7(4H)-one] |
| < 20 | > 100 |  | COc1cccc2oc(-c3c(-c4cn[nH]c4)[nH]c4c(-c5ccccc5)c(C(F)(F)F)nn4c3=O)nc12 [Compound C1254, 6-(4-methoxybenzo[d]oxazol-2-yl)-3-phenyl-5-(1H-pyrazol-4-yl)-2-(triluoromethyl)pyrazolo[1,5-a]pyrimidin-7(4H)-one] |
| < 20 | 20 to 100 |  | COc1ccc(C#N)c2oc(-c3c(C)[nH]c4c(-c5ccccc5)c(C(F)(F)F)nn4c3=O)nc12 [Compound C1100, 4-methoxy-2-(5-methyl-7-oxo-3-phenyl-2-(trifluoromethyl)-4,7-dihydropyrazolo[1,5-a]pyrimidin-6-yl)benzo[d]oxazole-7-carbonitrile] |
| < 20 | 20 to 100 |  | COc1cccc2oc(-c3c(C(=O)NC4COC4)[nH]c4c(-c5ccccc5)c(C(F)(F)F)nn4c3=O)nc12 [Compound C1185, 6-(4-methoxybenzo[d]oxazol-2-yl)-N-(oxetan-3-yl)-7-oxo-3-phenyl-2-(trifluoromethyl)-4,7-dihydropyrazolo[1,5-a]pyrimidine-5-carboxamide] |
| < 20 | < 20 |  | COc1nccc2oc(-c3c(C)[nH]c4c(-c5ccccc5)c(C(F)(F)F)nn4c3=O)nc12 [Compound C1037, 6-(4-methoxyoxazolo[4,5-c]pyridin-2-yl)-5-methyl-3-phenyl-2-(trifluoromethyl)pyrazolo[1,5-a]pyrimidin-7(4H)-one] |
| < 20 | > 100 |  | COc1cccc2oc(-c3c(COCC4CNC(=O)O4)[nH]c4c(-c5ccccc5)c(C#N)nn4c3=O)nc12 (stereo not drawn) [Compound C1251, 6-(4-methoxybenzo[d]oxazol-2-yl)-7-oxo-5-(((2-oxooxazolidin-5-yl)methoxy)methyl)-3-phenyl-4,7-dihydropyrazolo[1,5-a]pyrimidine-2-carbonitrile] |
| < 20 | < 20 |  | CCOc1cccc2oc(-c3c(C)[nH]c4c(-c5ccccc5)c(C(F)(F)F)nn4c3=O)nc12 [Compound C1038, 6-(4-ethoxybenzo[d]oxazol-2-yl)-5-methyl-3-phenyl-2-(trifluoromethyl)pyrazolo[1,5-a]pyrimidin-7(4H)-one] |
